Data taken from patent US7407767B2, “Method of screening remedy for heart disease and medicinal composition for treating heart disease” (Ono Pharmaceutical Co., Ltd., priority 2003, dated 2008).

Test system: PD-1-deficient mouse serum
Test: Competition with recombinant cardiac troponin I in western blotting of normal mouse heart extract
Format: binding
Conditions: recombinant cardiac troponin I added at 1, 10 and 100 μg/ml
Method: PD-1-deficient mouse serum (mouse #101, #104 and #117) was used for western blotting of normal mouse heart extract. For the competition assay, recombinant cardiac troponin I was added to immune blot solution at 1, 10, and 100 μg/ml. The 30-kDa antigen recognized by PD-1-deficient mouse serum was depleted by immunoprecipitation with antibodies to anti-myocardial troponin I and was recoverable from the pellet fraction (FIG. 2 (b)).
Thus, the band was confirmed to consist solely of cardiac troponin I.

recombinant cardiac troponin I: mouse cardiac troponin I protein obtained by PreScission protease cleavage of a GST-fusion recombinant protein
intensity of the 30-kDa band recognized by PD-1-deficient mouse serum: weakened in a dose-dependent manner
